Measured values taken from US7291734B2, “N-sulfonylaminothiazole” (Novartis AG, priority 2002, dated 2007).

Legend:
steroid sulfatase [1] = target: T1, steroid sulfatase (Homo sapiens, UniProt P08842); test: Assay using human skin homogenate (DHEAS cleavage); format: biochemical; set-up: Frozen specimens of human cadaver skin (about 100 mg per sample) are minced into small pieces; from tissue; host or cells: human cadaver skin, minced, in Triton X-100 buffer; conditions: human cadaver skin homogenate; [3H]DHEAS substrate; 18 hrs at 37° C.
T1 sequence (P08842 22-583): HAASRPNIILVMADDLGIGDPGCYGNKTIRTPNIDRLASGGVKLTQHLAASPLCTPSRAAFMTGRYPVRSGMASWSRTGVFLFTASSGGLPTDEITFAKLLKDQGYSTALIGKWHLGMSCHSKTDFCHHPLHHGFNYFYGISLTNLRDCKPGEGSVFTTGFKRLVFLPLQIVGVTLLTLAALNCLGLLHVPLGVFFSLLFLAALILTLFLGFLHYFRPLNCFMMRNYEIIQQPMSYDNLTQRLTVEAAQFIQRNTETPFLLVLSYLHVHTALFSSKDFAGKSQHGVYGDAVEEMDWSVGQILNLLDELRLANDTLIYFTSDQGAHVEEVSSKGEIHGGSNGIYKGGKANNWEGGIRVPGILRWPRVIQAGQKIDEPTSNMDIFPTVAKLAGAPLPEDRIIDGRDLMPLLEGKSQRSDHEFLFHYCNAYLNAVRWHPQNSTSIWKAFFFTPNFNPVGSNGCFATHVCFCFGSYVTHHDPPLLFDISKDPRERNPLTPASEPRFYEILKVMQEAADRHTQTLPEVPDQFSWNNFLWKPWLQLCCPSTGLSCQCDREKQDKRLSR
Method: Frozen specimens of human cadaver skin (about 100 mg per sample) are minced into small pieces (about 1×1 mm) using sharp scissors. The pieces obtained are suspended in ten volumes (w/w) of buffer (20 mM Tris-HCl, pH 7.5), containing 0.1% Triton X-100. Test compounds (e.g. compounds of the present invention or compounds for use in the present invention) are added at graded concentrations from stock solutions in ethanol or DMSO. Second, DHEAS as the substrate is added (1 μC/ml [^3H]DHEAS, specific activity: about 60 Cl/mmol, and 20 μM unlabeled DHEAS). Samples are incubated for 18 hrs at 37° C. At the end of the incubation period, 50 μl of 1 M Tris, pH 10.4 and 3 ml of toluene are added. A 1-ml aliquot of the organic phase is removed and subjected to liquid scintillation counting. The determined dpm-values in the aliquots are converted to nmol of DHEA cleaved per g of skin per hour.

steroid sulfatase [2] = target: T1, steroid sulfatase; test: Assay of human steroid sulfatase (4-methylumbelliferyl sulfate cleavage, fluorescence); format: biochemical; set-up: Human placenta is obtained freshly after delivery and stripped of membranes and connective tissues; from tissue; host or cells: human placenta (microsomes, Triton X-100 extract, chromatographically purified); conditions: purified human placental steroid sulfatase; 4-methylumbelliferyl sulfate substrate; 37° C., 1 hour
Method: Human placenta is obtained freshly after delivery and stripped of membranes and connective tissues. For storage, the material is frozen at −70° C. After thawing, all further steps are carried out at 4° C., while pH values are adjusted at 20° C. 400 g of the tissue is homogenized in 1.2 l of buffer A (50 mM Tris-HCl, pH 7.4, 0.25 M sucrose). The homogenate obtained is centrifuged at 10,000×g for 45 minutes. The supernatant is set aside and the pellet obtained is re-homogenized in 500 ml of buffer A. After centrifugation, the two supernatants obtained are combined and subjected to ultracentrifugation (100,000×g, 1 hour). The pellet obtained is resuspended in buffer A and centrifugation is repeated. […]
It is known that purified human steroid sulfatase not only is capable to cleave steroid sulfates, but also readily cleaves aryl sulfates such as 4-methylumbelliferyl sulfate which is used in the present test system as an activity indicator. […]
Plates are incubated at 37° C. for 1 hour. […] Fluorescence intensity is determined in a Titertek Fluoroskan II instrument with λex=355 nm and λem=460 nm. […]
[formula] wherein I100 is the intensity observed in the absence of inhibitor and s is a slope factor. Estrone sulfamate is used as a reference compound and its IC50 value is determined in parallel to all other test compounds. […]

“2-[2-(3,5-Bis-trifluoromethyl-benzenesulfonylamino)-6,7-dihydro-4H-thiazolo-[5,4-c]pyridin-yl]4-trifluoromethyl-benzamide [Example 1]” showed an IC50 (steroid sulfatase [1]) of 160 nM.

`CC12CCC3c4ccc(OS(N)(=O)=O)cc4CCC3C1CCC2=O` (centres unmarked) [estrone sulfamate] showed an IC50 (steroid sulfatase [2]) of roughly 60 nM.
